According to ChEMBL document CHEMBL1201862, “PubChem BioAssay data set” (2004):
Activity calls are given as the source filed them.

Key:
[1] = molecular target: T1, Alkaline phosphatase, tissue-nonspecific isozyme (Homo sapiens, UniProt P05186)
T1 sequence (P05186 whole entry): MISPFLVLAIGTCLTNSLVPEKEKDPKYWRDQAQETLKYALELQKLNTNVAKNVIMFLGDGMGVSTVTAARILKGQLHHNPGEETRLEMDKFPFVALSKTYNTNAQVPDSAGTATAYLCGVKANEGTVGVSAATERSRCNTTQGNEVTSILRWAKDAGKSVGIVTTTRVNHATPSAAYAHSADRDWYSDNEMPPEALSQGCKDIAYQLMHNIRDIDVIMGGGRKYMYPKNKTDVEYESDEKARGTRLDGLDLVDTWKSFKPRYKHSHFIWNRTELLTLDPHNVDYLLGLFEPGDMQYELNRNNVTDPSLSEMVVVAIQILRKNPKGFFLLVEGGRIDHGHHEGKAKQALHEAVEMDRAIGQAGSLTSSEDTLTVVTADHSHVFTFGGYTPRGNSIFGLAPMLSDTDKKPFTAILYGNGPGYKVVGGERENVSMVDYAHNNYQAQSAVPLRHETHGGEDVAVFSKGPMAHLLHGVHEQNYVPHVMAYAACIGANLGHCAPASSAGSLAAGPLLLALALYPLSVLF

[2] = microbe, parasite or virus in culture; type: functional; settings: Mycobacterium tuberculosis
[3] = molecular target: T2, Neuropeptide Y receptor type 2 (Homo sapiens, UniProt P49146); assay: Fluorescence-based cell-based high-throughput dose response assay for agonists of NPY-Y2. [Related pubchem assays: 1703 (Screening assay (CNGC inhibitors).), 1359 (Screening assay (NPY-Y2 potentiators or agonists).), 1304 (Screening assay (NPY-Y1 potentiators or agonists).), 1710 (Screening assay (NPY-Y2 agonists).), 1791 (Summary AID.)]; type: functional
T2 sequence (P49146 whole entry): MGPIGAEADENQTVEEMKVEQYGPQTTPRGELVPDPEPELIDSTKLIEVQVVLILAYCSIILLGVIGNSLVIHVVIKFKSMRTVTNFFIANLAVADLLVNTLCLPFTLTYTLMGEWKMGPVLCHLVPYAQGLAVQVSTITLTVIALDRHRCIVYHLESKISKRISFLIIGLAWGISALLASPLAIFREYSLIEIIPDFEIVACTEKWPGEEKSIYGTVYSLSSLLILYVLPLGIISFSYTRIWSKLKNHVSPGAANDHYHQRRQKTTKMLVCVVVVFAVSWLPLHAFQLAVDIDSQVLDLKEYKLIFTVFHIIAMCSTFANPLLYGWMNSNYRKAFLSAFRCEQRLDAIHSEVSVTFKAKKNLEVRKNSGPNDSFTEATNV

[4] = molecular target: T3, Neuropeptide Y receptor type 1 (Homo sapiens, UniProt P25929); assay: Fluorescence-based counterscreen for agonists of NPY-Y2: cell-based high-throughput dose response assay for agonists of NPY-Y1.; type: functional
T3 sequence (P25929 whole entry): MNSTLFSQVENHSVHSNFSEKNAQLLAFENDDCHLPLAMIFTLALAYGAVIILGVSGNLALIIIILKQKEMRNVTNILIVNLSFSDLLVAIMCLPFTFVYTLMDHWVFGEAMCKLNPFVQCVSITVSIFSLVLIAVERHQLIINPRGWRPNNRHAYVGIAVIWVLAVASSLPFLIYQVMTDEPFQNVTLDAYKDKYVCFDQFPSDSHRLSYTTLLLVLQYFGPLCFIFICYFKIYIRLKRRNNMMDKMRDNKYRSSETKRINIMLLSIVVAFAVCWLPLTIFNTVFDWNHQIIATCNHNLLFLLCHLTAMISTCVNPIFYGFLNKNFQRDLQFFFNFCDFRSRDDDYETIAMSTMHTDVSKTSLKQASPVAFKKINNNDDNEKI

Paired box protein Pax-8 = Paired box protein Pax-8 (Homo sapiens, UniProt Q06710); assay: PAX8 transcriptional activity inhibition in RMG-I – RMG-I cells, luciferase, cherry-pick, dose response (AID 687027); type: functional, cell-based;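 further: luciferase reporter driven by Pax8 target thyroperoxidase promoter measured by SteadyGlo luminescence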
[5] = molecular target: Luciferin 4-monooxygenase (Photinus pyralis, UniProt P08659); assay: inhibition of purified Photinus pyralis luciferase – biochemical, luminescence, dose response (AID 1891)
HEK293 [6] = assay: Fluorescence-based counterscreen for potentiators or agonists of NPY-Y2: cell-based high-throughput dose response assay to identify inhibitors of cyclic nucleotide gated ion channel (CNGC) activity. In this assay, the parental HEK293 cell line transfected with a cyclic-nucleotide gated ion channel (CNGC)-based cAMP sensor is used to measure inhibition of isoproterenol-induced CNGC activity by test compound.; type: functional; settings: Homo sapiens
[7] = Luminescence Cell-Based Dose Confirmation HTS to Identify Inhibitors of Platelet Dense Granule Release. [Related pubchem assays: 1663 (Primary HTS), 1678 (Summary of Project)]; type: functional
cells [8] = type: functional, cell-based
[9] = Luminescence-based counterscreen assay for KLF5 inhibitors: dose response cell-based high throughput screening assay to identify cytotoxic compounds using the IEC-6 intestinal epithelial cell line. [Related pubchem assays: 1700 (Primary screen.), 1834 (Confirmation screen.), 1858 (Summary AID.), 1905 (Counterscreen.)]; type: functional
HEK293 [10] = assay: EBV LMP1 TES2 canonical NF-kB signalling blockers – cell-based, HEK293, luciferase, cherry-pick, dose response (AID 588343); type: functional; settings: Homo sapiens
[11] = toxicity toward HepG2 liver cells – cell-based, plate reader, cherry-pick, antagonist series, cytotoxicity control, dose response (AID 743416); type: functional
[12] = MIN6 cell viability loss – mouse insulinoma, cytotoxicity control, dose response (AID 2122); type: functional;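 further: confirmatory high-throughput counterscreen run to flag cytotoxic compounds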
cells [13] = type: functional, cell-based; remark: listed apart in the source
[14] = viability loss in HEK293 cells – cell-based, plate reader, cherry-picked samples, cytotoxicity control, dose response (AID 743446); type: functional
[15] = decrease of insulin promoter-GFP reporter – imaging, high-content screening, mouse beta cells (AID 1628); type: functional; settings: MIN6
[16] = A549 cell cytotoxicity, dose response, cytotoxicity control, plate reader, cherry-pick, antagonist series (AID 743412); type: functional, cell-based
[17] = fluconazole-exposed Candida albicans growth modulators – fluorescence, retest, confirmation (AID 2467); type: functional, cell-based
[18] = NIH-3T3 fibroblast cytotoxicity, dose response, cytotoxicity control, cell-based, fluorescence, Alamar Blue, secondary assay (AID 2327); type: functional;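 further: NIH-3T3 mouse fibroblasts cultured with fluconazole at 8 µg/mL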
[19] = blockers of bursicon-stimulated LGR2 cAMP reporter – cell-based, HEK293, CRE-luciferase reporter, cherry pick, set 2, dose response (AID 743343); type: functional;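 further: transfected cells were stimulated with diluted bursicon conditioned medium after compound addition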
[20] = blockade of melanocortin 4 receptor signaling – cell-based, plate reader, cherry pick, counter-screen for LGR2 antagonist project, dose response (AID 743444); type: functional;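 further: transfected HEK 293 cells stimulated with alpha-MSH peptide; potency of inhibitors of the alpha-MSH evoked signal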
Nonstructural protein 1 = Nonstructural protein 1 (Influenza A virus, UniProt Q194T2); type: functional, Influenza A virus (A/California/07/2009(H1N1))
Sequence of Nonstructural protein 1 (Q194T2 whole entry): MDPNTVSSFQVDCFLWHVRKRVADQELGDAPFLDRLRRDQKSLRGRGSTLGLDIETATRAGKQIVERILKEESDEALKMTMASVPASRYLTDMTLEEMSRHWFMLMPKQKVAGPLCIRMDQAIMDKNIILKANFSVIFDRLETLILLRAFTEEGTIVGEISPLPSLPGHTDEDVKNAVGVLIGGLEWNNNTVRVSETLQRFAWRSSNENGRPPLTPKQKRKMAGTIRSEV

[21] = molecular target: Lysosomal acid glucosylceramidase (Homo sapiens, UniProt P04062); assay: Dose response cell-based high throughput screening assay to identify enhancers of beta-glucosidase activity. [Related pubchem assays: 784 ]; type: functional
Sequence of Lysosomal acid glucosylceramidase (P04062 whole entry): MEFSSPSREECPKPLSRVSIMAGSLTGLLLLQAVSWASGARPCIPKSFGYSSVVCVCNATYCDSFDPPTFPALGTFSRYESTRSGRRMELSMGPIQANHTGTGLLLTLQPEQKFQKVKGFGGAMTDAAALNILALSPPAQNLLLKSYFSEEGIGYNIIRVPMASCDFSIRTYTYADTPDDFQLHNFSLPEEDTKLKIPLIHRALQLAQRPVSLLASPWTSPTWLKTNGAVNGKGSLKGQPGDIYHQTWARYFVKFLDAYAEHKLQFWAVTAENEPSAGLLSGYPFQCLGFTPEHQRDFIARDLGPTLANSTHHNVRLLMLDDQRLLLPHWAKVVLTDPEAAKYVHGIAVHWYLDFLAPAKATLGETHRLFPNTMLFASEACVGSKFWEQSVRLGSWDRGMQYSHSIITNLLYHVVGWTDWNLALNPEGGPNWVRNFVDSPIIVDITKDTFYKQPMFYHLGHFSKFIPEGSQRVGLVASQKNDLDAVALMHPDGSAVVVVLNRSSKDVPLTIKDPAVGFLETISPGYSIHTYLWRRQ

[22] = molecular target: T4, Heat shock factor protein 1 (Mus musculus, UniProt P38532); assay: decrease of HSF1-responsive luciferase luminescence – cell-based, NIH3T3, dose retest, confirmation (AID 2382); type: functional;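 further: NIH3T3 fibroblasts with HSF1-driven luciferase reporter stressed by proteasome inhibitor MG132; luminescence from HSF1-driven luciferase expression after 8 hours of MG132 stress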
T4 sequence (P38532 whole entry): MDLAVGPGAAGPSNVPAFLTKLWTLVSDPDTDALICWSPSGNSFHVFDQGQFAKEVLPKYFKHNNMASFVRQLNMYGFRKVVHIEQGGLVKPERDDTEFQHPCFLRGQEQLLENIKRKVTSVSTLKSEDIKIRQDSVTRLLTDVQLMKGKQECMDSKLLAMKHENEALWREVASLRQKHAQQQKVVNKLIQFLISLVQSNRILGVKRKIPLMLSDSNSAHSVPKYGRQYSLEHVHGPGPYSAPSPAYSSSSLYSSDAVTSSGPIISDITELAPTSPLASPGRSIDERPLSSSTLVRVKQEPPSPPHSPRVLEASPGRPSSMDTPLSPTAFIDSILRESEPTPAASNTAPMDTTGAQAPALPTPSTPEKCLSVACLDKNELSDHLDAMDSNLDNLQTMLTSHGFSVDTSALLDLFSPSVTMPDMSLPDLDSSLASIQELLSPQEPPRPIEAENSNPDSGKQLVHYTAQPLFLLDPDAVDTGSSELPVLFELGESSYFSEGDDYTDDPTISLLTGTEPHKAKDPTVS

[23] = Luminescence Cell-Based Dose Response HTS to Identify Inhibitors of 5'UTR Stem-Loop Driven Prion Protein mRNA Translation in H4 Neuroglioblastoma Cells. [Related pubchem assays: 1827 (Project Summary), 1813 (Primary HTS)]; type: functional
[24] = luciferase reporter signal suppression in cells – H4 neuroglioma cells, luminescence, dose response (AID 1990); type: functional, cell-based
[25] = molecular target: Peroxisome proliferator-activated receptor gamma/Nuclear receptor coactivator 2 (Homo sapiens, UniProt P37231); type: functional;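 further: agonist potency for raising coactivator recruitment to the receptor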
Sequence of Peroxisome proliferator-activated receptor gamma/Nuclear receptor coactivator 2 (P37231 whole entry): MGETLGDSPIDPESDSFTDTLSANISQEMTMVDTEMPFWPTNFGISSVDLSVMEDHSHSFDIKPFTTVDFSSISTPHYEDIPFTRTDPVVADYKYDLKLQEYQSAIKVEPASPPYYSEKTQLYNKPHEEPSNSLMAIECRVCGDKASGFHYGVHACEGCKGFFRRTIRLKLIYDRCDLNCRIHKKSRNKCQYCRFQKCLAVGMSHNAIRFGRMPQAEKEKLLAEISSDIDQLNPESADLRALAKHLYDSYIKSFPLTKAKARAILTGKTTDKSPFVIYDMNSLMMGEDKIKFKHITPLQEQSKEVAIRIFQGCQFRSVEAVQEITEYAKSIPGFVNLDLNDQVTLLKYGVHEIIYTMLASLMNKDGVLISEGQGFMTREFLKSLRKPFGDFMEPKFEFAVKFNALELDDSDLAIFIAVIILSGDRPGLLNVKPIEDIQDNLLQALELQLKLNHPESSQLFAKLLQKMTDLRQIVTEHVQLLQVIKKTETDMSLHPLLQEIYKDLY
Sequence of Peroxisome proliferator-activated receptor gamma/Nuclear receptor coactivator 2 (Q15596 whole entry, further chain): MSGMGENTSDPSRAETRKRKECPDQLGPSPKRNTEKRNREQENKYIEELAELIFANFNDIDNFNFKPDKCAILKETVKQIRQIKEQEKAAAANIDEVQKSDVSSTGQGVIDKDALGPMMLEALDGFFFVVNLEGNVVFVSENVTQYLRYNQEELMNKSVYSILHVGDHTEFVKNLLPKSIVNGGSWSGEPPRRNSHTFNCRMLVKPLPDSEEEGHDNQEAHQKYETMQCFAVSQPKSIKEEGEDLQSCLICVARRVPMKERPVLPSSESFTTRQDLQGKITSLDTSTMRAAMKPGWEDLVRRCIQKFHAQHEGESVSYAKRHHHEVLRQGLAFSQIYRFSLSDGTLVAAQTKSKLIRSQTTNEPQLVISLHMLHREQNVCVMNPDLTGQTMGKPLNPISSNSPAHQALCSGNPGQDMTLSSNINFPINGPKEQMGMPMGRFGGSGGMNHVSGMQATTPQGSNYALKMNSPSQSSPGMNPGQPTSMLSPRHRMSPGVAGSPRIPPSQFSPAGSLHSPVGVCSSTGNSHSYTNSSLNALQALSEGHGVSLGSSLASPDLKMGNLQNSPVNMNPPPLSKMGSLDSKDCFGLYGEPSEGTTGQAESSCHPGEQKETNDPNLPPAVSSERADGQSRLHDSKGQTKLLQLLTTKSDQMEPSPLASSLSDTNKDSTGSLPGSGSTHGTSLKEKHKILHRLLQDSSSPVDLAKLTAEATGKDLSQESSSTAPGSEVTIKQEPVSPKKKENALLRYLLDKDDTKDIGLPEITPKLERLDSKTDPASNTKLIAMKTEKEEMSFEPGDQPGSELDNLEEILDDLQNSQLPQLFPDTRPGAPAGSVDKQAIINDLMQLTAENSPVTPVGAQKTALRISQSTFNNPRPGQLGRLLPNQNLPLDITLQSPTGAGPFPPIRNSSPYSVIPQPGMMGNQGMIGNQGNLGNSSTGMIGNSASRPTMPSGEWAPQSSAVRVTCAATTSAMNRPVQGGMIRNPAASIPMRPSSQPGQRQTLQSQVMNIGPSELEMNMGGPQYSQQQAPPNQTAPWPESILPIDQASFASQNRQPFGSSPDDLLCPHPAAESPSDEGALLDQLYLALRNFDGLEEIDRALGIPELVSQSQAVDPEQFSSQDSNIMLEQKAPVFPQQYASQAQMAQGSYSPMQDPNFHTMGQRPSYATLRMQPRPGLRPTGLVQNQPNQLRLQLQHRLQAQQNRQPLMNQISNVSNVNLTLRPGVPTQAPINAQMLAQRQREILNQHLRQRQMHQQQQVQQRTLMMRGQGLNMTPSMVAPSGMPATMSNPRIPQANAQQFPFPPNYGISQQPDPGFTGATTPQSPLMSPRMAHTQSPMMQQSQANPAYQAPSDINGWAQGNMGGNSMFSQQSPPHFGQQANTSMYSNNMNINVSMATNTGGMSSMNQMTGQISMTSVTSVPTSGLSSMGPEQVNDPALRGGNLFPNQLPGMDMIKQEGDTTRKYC

[26] = molecular target: Peroxisome proliferator-activated receptor gamma/Nuclear receptor coactivator 1 (Homo sapiens, UniProt P37231); type: functional;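 further: agonist potency as compounds enhance coactivator SRC-1 recruitment to PPARgamma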
[27] = molecular target: Peroxisome proliferator-activated receptor gamma/Nuclear receptor coactivator 3 (Homo sapiens, UniProt P37231); type: functional;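 further: agonist potency for raising coactivator recruitment to the receptor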
Sequence of Peroxisome proliferator-activated receptor gamma/Nuclear receptor coactivator 3 (P37231 whole entry): as the sequence (P37231 whole entry) above
Sequence of Peroxisome proliferator-activated receptor gamma/Nuclear receptor coactivator 3 (Q9Y6Q9 whole entry, further chain): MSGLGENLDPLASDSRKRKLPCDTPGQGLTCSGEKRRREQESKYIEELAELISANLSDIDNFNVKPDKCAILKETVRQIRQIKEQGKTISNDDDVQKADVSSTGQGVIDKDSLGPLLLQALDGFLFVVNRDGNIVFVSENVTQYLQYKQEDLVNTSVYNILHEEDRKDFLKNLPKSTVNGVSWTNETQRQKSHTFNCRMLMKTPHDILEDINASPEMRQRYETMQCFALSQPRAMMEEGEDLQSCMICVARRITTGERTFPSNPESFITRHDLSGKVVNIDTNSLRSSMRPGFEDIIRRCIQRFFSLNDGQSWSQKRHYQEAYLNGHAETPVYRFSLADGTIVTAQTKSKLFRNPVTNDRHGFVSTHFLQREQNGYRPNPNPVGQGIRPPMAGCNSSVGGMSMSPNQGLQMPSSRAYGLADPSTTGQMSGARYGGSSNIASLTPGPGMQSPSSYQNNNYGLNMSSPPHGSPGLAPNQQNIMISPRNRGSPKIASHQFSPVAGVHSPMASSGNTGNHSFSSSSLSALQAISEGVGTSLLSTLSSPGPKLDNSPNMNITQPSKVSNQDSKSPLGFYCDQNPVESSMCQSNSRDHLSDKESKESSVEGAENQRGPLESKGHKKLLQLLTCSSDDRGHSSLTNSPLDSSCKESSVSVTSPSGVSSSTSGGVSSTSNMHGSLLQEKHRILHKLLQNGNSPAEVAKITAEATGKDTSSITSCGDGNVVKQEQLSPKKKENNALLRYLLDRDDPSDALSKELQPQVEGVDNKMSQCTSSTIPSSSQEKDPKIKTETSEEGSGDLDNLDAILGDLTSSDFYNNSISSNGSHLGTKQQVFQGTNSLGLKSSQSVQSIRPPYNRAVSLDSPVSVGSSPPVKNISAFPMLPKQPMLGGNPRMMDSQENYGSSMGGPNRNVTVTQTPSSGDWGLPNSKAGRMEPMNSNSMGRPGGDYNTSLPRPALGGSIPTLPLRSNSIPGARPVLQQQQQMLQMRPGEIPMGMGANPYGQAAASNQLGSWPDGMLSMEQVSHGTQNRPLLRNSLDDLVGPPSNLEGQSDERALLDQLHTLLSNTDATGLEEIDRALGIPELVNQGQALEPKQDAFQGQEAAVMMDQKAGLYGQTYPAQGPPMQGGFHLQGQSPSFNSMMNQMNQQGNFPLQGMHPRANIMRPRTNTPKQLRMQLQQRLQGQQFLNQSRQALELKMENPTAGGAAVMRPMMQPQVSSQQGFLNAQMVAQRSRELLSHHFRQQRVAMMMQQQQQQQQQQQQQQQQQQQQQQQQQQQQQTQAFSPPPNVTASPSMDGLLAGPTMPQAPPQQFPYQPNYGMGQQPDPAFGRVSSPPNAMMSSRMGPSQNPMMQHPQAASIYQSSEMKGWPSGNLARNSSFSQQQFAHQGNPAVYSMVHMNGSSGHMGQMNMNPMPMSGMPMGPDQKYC

[28] = viability of uninfected HEp-2 cells – cell-based, HTS, cytotoxicity control for RSV inhibitor project, dose response (AID 2410); type: functional; settings: human respiratory syncytial virus
[29] = Luminescence Cell-Based Dose Confirmation HTS to Identify Activators of 5'UTR Stem-Loop Driven Alpha-Synuclein mRNA Translation in H4 Neuroglioblastoma Cells. [Related pubchem assays: 1829 (Project Summary), 1814 (Primary HTS)]; type: functional
[30] = Luminescence Cell-Based Dose Response HTS to Identify Activators of Luciferase Translation or Activity in H4 […] Cells. [Related pubchem assays: 1829 (Project Summary), 1814 (Primary HTS)]; type: functional
H4 = assay: Luminescence Cell-Based Dose Response HTS to Identify Activators of 5'UTR Stem-Loop Driven Prion Protein mRNA Translation in H4 Neuroglioblastoma Cells. [Related pubchem assays: 1829 (Project Summary), 1814 (Primary HTS)]; type: functional; settings: Homo sapiens
[31] = viability loss in THP-1 monocytes – THP-1 cells, cytotoxicity control for Vif-APOBEC3G degradation inhibitor project, dose response (AID 1117359); type: functional; settings: THP-1
[32] = molecular target: Melanin-concentrating hormone receptor 1 (Homo sapiens, UniProt Q99705); assay: Fluorescence-based counterscreen for antagonists of the G-protein coupled receptor 7 (GPR7): cell-based high throughput dose response assay to identify antagonists of the melanin-concentrating hormone receptor 1 (MCHR1).; type: functional
Sequence of Melanin-concentrating hormone receptor 1 (Q99705 whole entry): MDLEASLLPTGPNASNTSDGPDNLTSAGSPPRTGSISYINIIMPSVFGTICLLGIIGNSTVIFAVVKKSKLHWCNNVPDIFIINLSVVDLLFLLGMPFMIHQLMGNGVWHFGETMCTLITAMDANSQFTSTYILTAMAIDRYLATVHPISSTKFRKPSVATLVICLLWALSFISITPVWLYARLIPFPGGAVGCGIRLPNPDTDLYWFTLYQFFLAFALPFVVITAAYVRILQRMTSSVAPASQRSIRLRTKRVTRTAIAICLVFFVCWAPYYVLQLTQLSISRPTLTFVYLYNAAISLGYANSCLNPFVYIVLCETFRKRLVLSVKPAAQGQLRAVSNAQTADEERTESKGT

[33] = molecular target: T5, Neuropeptides B/W receptor type 1 (Homo sapiens, UniProt P48145); assay: Fluorescence-based dose response cell-based high throughput screening assay to identify antagonists of the G-protein coupled receptor 7 (GPR7). [Related pubchem assays: 1952 (Screening assay (GPR7 antagonists).), 1880 (Summary AID.)]; type: functional
T5 sequence (P48145 whole entry): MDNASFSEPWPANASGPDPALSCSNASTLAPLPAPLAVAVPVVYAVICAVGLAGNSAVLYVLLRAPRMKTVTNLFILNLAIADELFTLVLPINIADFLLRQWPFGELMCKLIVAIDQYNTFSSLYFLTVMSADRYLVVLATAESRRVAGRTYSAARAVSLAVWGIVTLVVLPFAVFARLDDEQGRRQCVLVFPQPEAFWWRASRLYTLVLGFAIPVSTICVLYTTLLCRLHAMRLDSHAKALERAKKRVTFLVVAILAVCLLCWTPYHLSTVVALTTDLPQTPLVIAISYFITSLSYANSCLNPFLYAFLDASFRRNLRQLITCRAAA

## COc1ccc(-c2nc3ccccn3c2CN2CCN(c3ccccc3F)CC2)cc1
[1]
  EC50: 69.1 µM (not active)
[2]
  CC50: > 40 µM (active)

## O=C(N/N=C/c1ccc(Cl)c([N+](=O)[O-])c1)c1cc(-c2ccc3c4c(cccc24)CC3)[nH]n1
[3]
  EC50: > 35.4 µM (not active)
[4]
  EC50: > 35.4 µM (not active)
Paired box protein Pax-8
  AC50: 3.25 µM (active)
[5]
  EC50: > 112 µM (not active)
HEK293 [6]
  EC50: > 35.4 µM (not active)
[7]
  EC50: > 112 µM (not active)

## COc1cccc(/C=N/Nc2nccnc2Cl)c1O
Cells [8]
  EC50: 6.97 µM (active)
[9]
  IC50: 9.16 µM (active)
HEK293 [10]
  AC50: 2.73 µM (active)
[11]
  AC50: 2.48 µM (active)
[12]
  IC50: 3.97 µM (active)
Cells [13]
  EC50: > 350 µM (not active)
[14]
  AC50: 6.83 µM (active)
[15]
  IC50: 3.57 µM (active)
[16]
  AC50: 4.2 µM (active)
[17]
  EC50: 1.52 µM (active)
[18]
  EC50: > 150 µM (inactive)
[19]
  AC50: 3.7 µM (active)
[20]
  AC50: 3.39 µM (active)
Nonstructural protein 1
  IC50: 7.59 µM (active)

## Cn1c(Cc2ccccc2)nnc1SCC(=O)Nc1ccccc1N1CCOCC1
[21]
  EC50: > 50 µM (not active)

## CC1CCN(c2ccc(-c3cccs3)nn2)CC1
[9]
  IC50: 37.5 µM (not active)
[22]
  EC50: 2.78 µM (active)
[23]
  EC50: 10.4 µM (active)
[14]
  AC50: 30.9 µM (active)
[16]
  AC50: 29.4 µM (active)
[19]
  AC50: 0.851 µM (active)
[20]
  AC50: 1.43 µM (active)
[24]
  EC50: 8.6 µM (active)

## Cc1nn(Cc2c(F)cccc2Cl)c(C)c1[N+](=O)[O-]
[25]
  EC50: > 79.4 µM (not active)
[26]
  EC50: > 79.4 µM (not active)
[27]
  EC50: > 79.4 µM (not active)

## N#Cc1cc(O)c(-n2nnc3ccccc32)cc1C#N
[25]
  EC50: > 79.4 µM (not active)
[26]
  EC50: > 79.4 µM (not active)
[27]
  EC50: > 79.4 µM (not active)

## CCn1c2ccccc2c2cc(NC(=O)CN(C)CC(=O)Nc3ccc(N4CCOCC4)cc3)ccc21
[3]
  EC50: > 35.4 µM (not active)
[4]
  EC50: > 35.4 µM (not active)
[28]
  CC50: 32.7 µM (active)
[2]
  CC50: 37.5 µM (active)
[29]
  EC50: > 120 µM (not active)
[30]
  EC50: > 120 µM (not active)
HEK293 [6]
  EC50: > 35.4 µM (not active)
H4
  EC50: > 120 µM (not active)

## CCOC(=O)CN1C(=O)CSc2ccccc21
[21]
  EC50: > 10 µM (not active)

## O=C(CCC(=O)NNc1nc2ccccc2c2nc(-c3ccccc3)nn12)NCCCN1CCOCC1
[1]
  EC50: 70.8 µM (not active)
[31]
  CC50: > 40 µM (active)

## CC(C)(CO)NCc1c(OCc2ccc(Cl)cc2)ccc2ccccc12
[32]
  IC50: 9.31 µM (active)
[33]
  IC50: 7.85 µM (active)
